Reference: patent US20240336654A1, “ANTIMICROBIAL PEPTIDOMIMETICS” (SPEXIS AG, priority 2021, published 2024)
Where a SMILES comes first, the peptide text is derived from it. Bridges are numbered along the chain shown (N, C = ends). [ ]: non-standard residue; d: D form. Hyp = O=C(O)[C@@H]1C[C@@H](O)CN1; Cit = NC(=O)NCCC[C@H](N)C(=O)O; Agb = N=C(N)NCC[C@H](N)C(=O)O; Pen = CC(C)(S)[C@H](N)C(=O)O; dDab = NCC[C@@H](N)C(=O)O; Dab = NCC[C@H](N)C(=O)O

How the values were obtained:
Type in all cases: cell-based
[1] = test system: human red blood cells (hRBC); conditions: red cells of human, 1 h, 200 μg/mL
Summary of the method: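 Percent hemolysis derived from OD540 of supernatants relative to full lysis by 2.5% Triton X-100 (PBS baseline). Washed fresh human erythrocytes (20% v/v) were exposed to 200 μg/mL peptide for 1 h at 37 °C with shaking.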

[2] = test system: Klebsiella pneumoniae SSI3010; conditions: SSI3010
Summary of the method: (§1)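 MICs were determined by CLSI broth microdilution in cation-adjusted Mueller-Hinton II broth with about 5×10^5 CFU/mL inoculum. Peptides were tested in two-fold serial dilutions with 0.002% polysorbate 80 final. MIC in μg/mL is the lowest concentration with no visible growth after 18-20 h at 35 °C.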

[3] = test system: Escherichia coli MCR-1 Af 45; conditions: MCR-1 Af 45
Summary of the method: as §1

[4] = test system: Escherichia coli ATCC 25922; conditions: ATCC 25922
Summary of the method: as §1

Row | Klebsiella pneumoniae SSI3010 MIC [2] | Escherichia coli MCR-1 Af45 MIC [3] | Escherichia coli ATCC 25922 MIC [4] | Structure (SMILES) | Hemolysis at 0.2 g/L [1]
1 | 0.5 µg/mL | 0.25 µg/mL | 0.25 µg/mL | CC[C@H](C)[C@H](NC(=O)[C@@H]1C[C@@H](O)CN1C(=O)[C@@H](N)C(C)C)C(=O)N[C@@H]1C(=O)N[C@@H](Cc2ccc(O)cc2)C(=O)N[C@@H](CO)C(=O)N[C@@H](CC(N)=O)C(=O)N[C@@H](CCCNC(=N)N)C(=O)N[C@@H](CCCNC(N)=O)C(=O)N[C@@H]([C@@H](C)O)C(=O)N[C@H](CCN)C(=O)N[C@@H](CCCCN)C(=O)N[C@@H](CCN)C(=O)N[C@@H](CCN)C(=O)N[C@H](C(=O)N[C@@H](Cc2ccc(O)cc2)C(=O)O)CSSC1(C)C [Example 27, Val-Hyp-Ile-Pen-Tyr-Ser-Asn-Arg-Cit-Thr-^DDab-Lys-Dab-Dab-Cys-Tyr] (H-V[Hyp]I[Pen]YSNR[Cit]T[dDab]K[Dab][Dab]CY-OH; disulfide 4-15) | <1%
2 | 0.5 µg/mL | 0.25 µg/mL | 0.25 µg/mL | CC[C@H](C)[C@H](NC(=O)[C@@H]1C[C@@H](O)CN1C(=O)[C@@H](N)C(C)C)C(=O)N[C@@H]1C(=O)N[C@@H](Cc2ccc(O)cc2)C(=O)N[C@@H](CO)C(=O)N[C@@H](CC(N)=O)C(=O)N[C@@H](CCCNC(=N)N)C(=O)N[C@@H](CC(N)=O)C(=O)N[C@@H]([C@@H](C)O)C(=O)N[C@H](CCN)C(=O)N[C@@H](CCCCN)C(=O)N[C@@H](CCN)C(=O)N[C@@H](CCN)C(=O)N[C@H](C(=O)N[C@@H](Cc2ccc(O)cc2)C(=O)O)CSSC1(C)C [Example 28, Val-Hyp-Ile-Pen-Tyr-Ser-Asn-Arg-Asn-Thr-^DDab-Lys-Dab-Dab-Cys-Tyr] (H-V[Hyp]I[Pen]YSNRNT[dDab]K[Dab][Dab]CY-OH; disulfide 4-15) | <1%
3 | 0.5 µg/mL | 0.125 µg/mL | 0.25 µg/mL | CC[C@H](C)[C@H](NC(=O)[C@@H]1C[C@@H](O)CN1C(=O)[C@@H](N)C(C)C)C(=O)N[C@@H]1C(=O)N[C@@H](Cc2ccc(O)cc2)C(=O)N[C@@H](CO)C(=O)N[C@@H](CC(N)=O)C(=O)N[C@@H](CCCNC(=N)N)C(=O)N[C@@H](CO)C(=O)N[C@@H]([C@@H](C)O)C(=O)N[C@H](CCN)C(=O)N[C@@H](CCCCN)C(=O)N[C@@H](CCN)C(=O)N[C@@H](CCN)C(=O)N[C@H](C(=O)N[C@@H](Cc2ccc(O)cc2)C(=O)O)CSSC1(C)C [Example 29, Val-Hyp-Ile-Pen-Tyr-Ser-Asn-Arg-Ser-Thr-^DDab-Lys-Dab-Dab-Cys-Tyr] (H-V[Hyp]I[Pen]YSNRST[dDab]K[Dab][Dab]CY-OH; disulfide 4-15) | <1%
4 | 0.125 µg/mL | 0.0625 µg/mL | 0.125 µg/mL | CC[C@H](C)[C@H](NC(=O)[C@@H]1C[C@@H](O)CN1C(=O)[C@@H](N)C(C)C)C(=O)N[C@@H]1C(=O)N[C@@H](Cc2ccc(O)cc2)C(=O)N[C@@H](CO)C(=O)N[C@@H](CC(N)=O)C(=O)N[C@@H](CCCNC(=N)N)C(=O)N[C@@H](CCNC(=N)N)C(=O)N[C@@H]([C@@H](C)O)C(=O)N[C@H](CCN)C(=O)N[C@@H](CCCCN)C(=O)N[C@@H](CCN)C(=O)N[C@@H](CCN)C(=O)N[C@H](C(=O)N[C@@H](Cc2ccc(O)cc2)C(=O)O)CSSC1(C)C [Example 30, Val-Hyp-Ile-Pen-Tyr-Ser-Asn-Arg-Agb-Thr-^DDab-Lys-Dab-Dab-Cys-Tyr] (H-V[Hyp]I[Pen]YSNR[Agb]T[dDab]K[Dab][Dab]CY-OH; disulfide 4-15) | <1%
5 | 0.25 µg/mL | 0.125 µg/mL | 0.125 µg/mL | CC[C@H](C)[C@H](NC(=O)[C@@H]1C[C@@H](O)CN1C(=O)[C@@H](N)C(C)C)C(=O)N[C@@H]1C(=O)N[C@@H](Cc2ccc(O)cc2)C(=O)N[C@@H](CO)C(=O)N[C@@H](CC(N)=O)C(=O)N[C@@H](CCCNC(=N)N)C(=O)N[C@@H](CCN)C(=O)N[C@@H](CC(N)=O)C(=O)N[C@H](CCN)C(=O)N[C@@H](CCCCN)C(=O)N[C@@H](CCN)C(=O)N[C@@H](CCN)C(=O)N[C@H](C(=O)N[C@@H](Cc2ccc(O)cc2)C(=O)O)CSSC1(C)C [Example 31, Val-Hyp-Ile-Pen-Tyr-Ser-Asn-Arg-Dab-Asn-^DDab-Lys-Dab-Dab-Cys-Tyr] (H-V[Hyp]I[Pen]YSNR[Dab]N[dDab]K[Dab][Dab]CY-OH; disulfide 4-15) | <1%
6 | 0.5 µg/mL | 0.5 µg/mL | 1 µg/mL | CC[C@H](C)[C@H](NC(=O)[C@@H]1C[C@@H](O)CN1C(=O)[C@@H](N)C(C)C)C(=O)N[C@@H]1C(=O)N[C@@H](Cc2ccc(O)cc2)C(=O)N[C@@H](CCN)C(=O)N[C@@H](CC(N)=O)C(=O)N[C@@H](CCCNC(=N)N)C(=O)N[C@@H](CCN)C(=O)N[C@@H](CO)C(=O)N[C@H](CCN)C(=O)N[C@@H](CCCCN)C(=O)N[C@@H](CCN)C(=O)N[C@@H](CO)C(=O)N[C@H](C(=O)N[C@@H](Cc2ccc(O)cc2)C(=O)O)CSSC1(C)C [Example 32, Val-Hyp-Ile-Pen-Tyr-Dab-Asn-Arg-Dab-Ser-^DDab-Lys-Dab-Ser-Cys-Tyr] (H-V[Hyp]I[Pen]Y[Dab]NR[Dab]S[dDab]K[Dab]SCY-OH; disulfide 4-15) | <1%
7 | 0.125 µg/mL | 0.125 µg/mL | 0.125 µg/mL | CC[C@H](C)[C@H](NC(=O)[C@@H]1C[C@@H](O)CN1C(=O)[C@@H](N)C(C)C)C(=O)N[C@@H]1C(=O)N[C@@H](Cc2ccc(O)cc2)C(=O)N[C@@H](CO)C(=O)N[C@@H](CC(N)=O)C(=O)N[C@@H](CCCNC(=N)N)C(=O)N[C@@H](CCN)C(=O)N[C@@H](CO)C(=O)N[C@H](CCN)C(=O)N[C@@H](CCCCN)C(=O)N[C@@H](CCN)C(=O)N[C@@H](CCN)C(=O)N[C@H](C(=O)N[C@@H](Cc2ccc(O)cc2)C(=O)O)CSSC1(C)C [Example 33, Val-Hyp-Ile-Pen-Tyr-Ser-Asn-Arg-Dab-Ser-^DDab-Lys-Dab-Dab-Cys-Tyr] (H-V[Hyp]I[Pen]YSNR[Dab]S[dDab]K[Dab][Dab]CY-OH; disulfide 4-15) | <1%
8 | 0.25 µg/mL | 0.0625 µg/mL | 0.125 µg/mL | CC[C@H](C)[C@H](NC(=O)[C@@H]1C[C@@H](O)CN1C(=O)[C@@H](N)C(C)C)C(=O)N[C@@H]1C(=O)N[C@@H](Cc2ccc(O)cc2)C(=O)N[C@@H](CO)C(=O)N[C@@H](CC(N)=O)C(=O)N[C@@H](CCCNC(=N)N)C(=O)N[C@@H](CCN)C(=O)N[C@@H]([C@@H](C)O)C(=O)N[C@H](CCCCN)C(=O)N[C@@H](CCCCN)C(=O)N[C@@H](CCN)C(=O)N[C@@H](CCN)C(=O)N[C@H](C(=O)N[C@@H](Cc2ccc(O)cc2)C(=O)O)CSSC1(C)C [Example 35, Val-Hyp-Ile-Pen-Tyr-Ser-Asn-Arg-Dab-Thr-^DLys-Lys-Dab-Dab-Cys-Tyr] (H-V[Hyp]I[Pen]YSNR[Dab]T[dK]K[Dab][Dab]CY-OH; disulfide 4-15) | <1%
